{
  "source": "patent US11254652B2",
  "about": "“Crystalline forms of N-(4-(4-(cyclopropymethyl)piperazine-1-carbonyl)phenyl)quinoline-8-sulfonamide” (Agios Pharmaceuticals, Inc., priority 2017, dated 2022)",
  "test": "Solubility measurements by gravimetric method in solvents at 23° C. and 50° C.",
  "assay_type": "physicochemical",
  "conditions": "for solubility at 2 days: organic solvent or mixture, thermodynamic from solid, read-out: Solubility",
  "experimental": "Solubility measurements were done by gravimetric method in 20 different solvents at two temperatures (23° C. and 50° C.). About 20-30 mg of Form A, the synthesis of which is described below, was weighed and 0.75 mL solvent was added to form a slurry. The slurry was then stirred for two days at the specified temperature. The vial was centrifuged and the supernatant was collected for solubility measurement through gravimetric method. The saturated supernatant was transferred into pre-weighed 2 mL HPLC vials and weighed again (vial+liquid). The uncapped vial was then left on a 50° C. hot plate to slowly evaporate the solvent overnight. The vials were then left in the oven at 50° C. and under vacuum to remove the residual solvent so that only the dissolved solid remained. The vial was then weighed (vial+solid). From these three weights; vial, vial+liquid and vial+solid; the weight of dissolved solid and the solvent were calculated. Then using solvent density the solubility was calculated as mg solid/mL of solvent.\n20-30 mg of Form A was weighed into 2 mL vial and 500 μL MeOH solvent system as outlined in the table was added. If dissolved, more solids were added to form the slurry. The slurries were then stirred for two days. The vials were centrifuged and the supernatant was collected for solubility measurement through gravimetric method by evaporation at 50° C. XRPD analysis was conducted on the solid after filtration of the slurries.\nFor the sake of comparison, the solubility of Compound 1, i.e., the non-crystalline freebase, was also measured in two solvent systems to see the effect of water.",
  "note": "Like-named read-outs stand apart in the source and are kept apart here.",
  "data": [
    {"smiles": "O=C(c1ccc(NS(=O)(=O)c2cccc3cccnc23)cc1)N1CCN(CC2CC2)CC1", "note": "[Form A, 1-(cyclopropylmethyl)-4-(4-(quinoline-8-sulfonamido)benzoyl)piperazin-1-ium hemisulfate sesquihydrate]", "values": [
      {"measurement": "solubility at 2 days", "setting": "DCM, 23 °C, DCM, 23° C.", "result": 2000, "unit": "µg/mL"},
      {"measurement": "Solubility", "setting": "EtOAc, 23° C.", "result": 0, "unit": "mg solid/mL solvent"},
      {"measurement": "solubility at 2 days", "setting": "EtOAc, 50 °C, EtOAc, 50° C.", "result": 2000, "unit": "µg/mL"},
      {"measurement": "solubility at 2 days", "setting": "EtOAc:MeOH (1:1) and 5 vol % water, 23 °C, EtOAc:MeOH (1:1) and 5 vol % water, 23° C.", "result": 3000, "unit": "µg/mL"},
      {"measurement": "solubility at 2 days", "setting": "EtOAc:MeOH (1:1) and 5 vol % water, 50 °C, EtOAc:MeOH (1:1) and 5 vol % water, 50° C.", "result": 12000, "unit": "µg/mL"},
      {"measurement": "solubility at 2 days", "setting": "EtOAc:MeOH (1:1), 23 °C, EtOAc:MeOH (1:1), 23° C.", "result": 21000, "unit": "µg/mL"},
      {"measurement": "solubility at 2 days", "setting": "EtOAc:MeOH (1:1), 50 °C, EtOAc:MeOH (1:1), 50° C.", "result": 240000, "unit": "µg/mL"},
      {"measurement": "solubility at 2 days", "setting": "EtOAc:MeOH (1:9), 23 °C, EtOAc:MeOH (1:9), 23° C.", "result": 359000, "unit": "µg/mL"},
      {"measurement": "solubility at 2 days", "setting": "EtOAc:MeOH (1:9), 50 °C, EtOAc:MeOH (1:9), 50° C.", "result": 531000, "unit": "µg/mL"},
      {"measurement": "Solubility", "setting": "EtOAc:MeOH (9:1), 23° C.", "result": 0, "unit": "mg solid/mL solvent"},
      {"measurement": "solubility at 2 days", "setting": "EtOAc:MeOH (9:1), 50 °C, EtOAc:MeOH (9:1), 50° C.", "result": 9000, "unit": "µg/mL"},
      {"measurement": "Solubility", "setting": "EtOH, 23° C.", "result": 0, "unit": "mg solid/mL solvent"},
      {"measurement": "solubility at 2 days", "setting": "EtOH, 50 °C, EtOH, 50° C.", "result": 1000, "unit": "µg/mL"},
      {"measurement": "solubility at 2 days", "setting": "EtOH:MeOH (1:1), 23 °C, EtOH:MeOH (1:1), 23° C.", "result": 2000, "unit": "µg/mL"},
      {"measurement": "solubility at 2 days", "setting": "EtOH:MeOH (1:1), 50 °C, EtOH:MeOH (1:1), 50° C.", "result": 11000, "unit": "µg/mL"},
      {"measurement": "Solubility", "setting": "IPA, 23° C.", "result": 0, "unit": "mg solid/mL solvent"},
      {"measurement": "solubility at 2 days", "setting": "IPA, 50 °C, IPA, 50° C.", "result": 2000, "unit": "µg/mL"},
      {"measurement": "solubility at 2 days", "setting": "IPA:DMSO (8:2), 23 °C, IPA:DMSO (8:2), 23° C.", "result": 11000, "unit": "µg/mL"},
      {"measurement": "solubility at 2 days", "setting": "IPA:DMSO (8:2), 50 °C, IPA:DMSO (8:2), 50° C.", "result": 28000, "unit": "µg/mL"},
      {"measurement": "solubility at 2 days", "setting": "IPA:DMSO:water (70:20:10), 23 °C, IPA:DMSO:water (70:20:10), 23° C.", "result": 1000, "unit": "µg/mL"},
      {"measurement": "solubility at 2 days", "setting": "IPA:DMSO:water (70:20:10), 50 °C, IPA:DMSO:water (70:20:10), 50° C.", "result": 8000, "unit": "µg/mL"},
      {"measurement": "solubility at 2 days", "setting": "IPA:DMSO:water (70:25:5), 23 °C, IPA:DMSO:water (70:25:5), 23° C.", "result": 2000, "unit": "µg/mL"},
      {"measurement": "solubility at 2 days", "setting": "IPA:DMSO:water (70:25:5), 50 °C, IPA:DMSO:water (70:25:5), 50° C.", "result": 9000, "unit": "µg/mL"},
      {"measurement": "solubility at 2 days", "setting": "IPA:DMSO:water (80:18:2), 23 °C, IPA:DMSO:water (80:18:2), 23° C.", "result": 1000, "unit": "µg/mL"},
      {"measurement": "solubility at 2 days", "setting": "IPA:DMSO:water (80:18:2), 50 °C, IPA:DMSO:water (80:18:2), 50° C.", "result": 6000, "unit": "µg/mL"},
      {"measurement": "Solubility", "setting": "IPAc, 23° C.", "result": 0, "unit": "mg solid/mL solvent"},
      {"measurement": "solubility at 2 days", "setting": "IPAc, 50 °C, IPAc, 50° C.", "result": 1000, "unit": "µg/mL"},
      {"measurement": "Solubility", "setting": "MEK:water (20:1), 23° C.", "result": 0, "unit": "mg solid/mL solvent"},
      {"measurement": "solubility at 2 days", "setting": "MEK:water (20:1), 50 °C, MEK:water (20:1), 50° C.", "result": 2000, "unit": "µg/mL"},
      {"measurement": "solubility at 2 days", "setting": "MeOAc:MeOH (1:1) and 1 vol % water, 23 °C, MeOAc:MeOH (1:1) and 1 vol % water, 23° C.", "result": 118000, "unit": "µg/mL"},
      {"measurement": "solubility at 2 days", "setting": "MeOAc:MeOH (1:1) and 1 vol % water, 50 °C, MeOAc:MeOH (1:1) and 1 vol % water, 50° C.", "result": 236000, "unit": "µg/mL"},
      {"measurement": "solubility at 2 days", "setting": "MeOAc:MeOH (1:1) and 2.5 vol % water, 23 °C, MeOAc:MeOH (1:1) and 2.5 vol % water, 23° C.", "result": 39000, "unit": "µg/mL"},
      {"measurement": "solubility at 2 days", "setting": "MeOAc:MeOH (1:1) and 2.5 vol % water, 50 °C, MeOAc:MeOH (1:1) and 2.5 vol % water, 50° C.", "result": 143000, "unit": "µg/mL"},
      {"measurement": "solubility at 2 days", "setting": "MeOAc:MeOH (1:1) and 5 vol % water, 23 °C, MeOAc:MeOH (1:1) and 5 vol % water, 23° C.", "result": 5000, "unit": "µg/mL"},
      {"measurement": "solubility at 2 days", "setting": "MeOAc:MeOH (1:1) and 5 vol % water, 50 °C, MeOAc:MeOH (1:1) and 5 vol % water, 50° C.", "result": 26000, "unit": "µg/mL"},
      {"measurement": "solubility at 2 days", "setting": "MeOAc:MeOH (1:1), 23 °C, MeOAc:MeOH (1:1), 23° C.", "result": 208000, "unit": "µg/mL"},
      {"measurement": "solubility at 2 days", "setting": "MeOAc:MeOH (1:1), 50 °C, MeOAc:MeOH (1:1), 50° C.", "result": 340000, "unit": "µg/mL"},
      {"measurement": "solubility at 2 days", "setting": "MeOH, 23 °C, MeOH, 23° C., 2 days slurry", "result": 393000, "unit": "µg/mL"}
    ]}
  ]
}
